Values of other authors as cited in patent publication US6514536B2, “Drug preparations for treating sexual dysfunction” (L.A.M. Pharmaceutical Corporation, priority 1998, dated 2003).

Experiments:
[1] = most abundant metabolite in plasma
[2] = tested on: isolated corpus cavernosum and corpus spongiosum preparations; conditions: in vitro
[3] = tested on: isolated cavernosal artery segments; conditions: segments pre-contracted with noreginephrine or prostaglandin E2α
blood pressure = conditions: intravenous doses of 1 to 10 micrograms per kilogram of body weight
erection = conditions: men who failed prior intracavernous therapy with papaverine and phentolamine
penile blood flow = conditions: duplex sonography

Row | SMILES | biological activity [1] | smooth muscle relaxation [2] | vasodilation [3] | effect on blood pressure (blood pressure) | share of men achieving adequate erections (erection) | increase in penile blood flow compared with papaverine (penile blood flow)
1 | CCCCCC(=O)CC[C@H]1[C@H](O)CC(=O)[C@@H]1CCCCCCC(=O)O [DKH-PGE1, 13,14-dihydro,15-keto PGE1] | biologically inactive | – | – | – | – | –
2 | CCCCC[C@H](O)/C=C/[C@H]1[C@H](O)CC(=O)[C@@H]1CCCCCCC(=O)O [PGE1, prostaglandin E1] | – | dose-dependent smooth muscle relaxation | vasodilation has been demonstrated | lower blood pressure | two-thirds | at least as effective as papaverine
